{"source": "the supplement of paper PMC10307832", "test_in_all_cases": "relative viability (nuclei count vs DMSO), 5 days (fraction); higher = more cells survive", "key": {"Kobe2602": {"compound": "C1=CC(=CC=C1NC(=S)NNC2=C(C=C(C=C2[N+](=O)[O-])C(F)(F)F)[N+](=O)[O-])F [Kobe2602]", "procedure,_shortened": "(§1)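 Viability here means nuclei in treated wells divided by nuclei in vehicle wells, reported as the median across plates. Only plates with control CV below 25% and at least one doubling passed. Lung cancer cell lines in 1536-well plates were exposed to five √10-spaced library-drug doses for 5 days and counted from 4× Hoechst images in MetaXpress.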"}, "Cabozantinib": {"compound": "COc1cc2nccc(Oc3ccc(NC(=O)C4(C(=O)Nc5ccc(F)cc5)CC4)cc3)c2cc1OC [Cabozantinib]", "procedure,_shortened": "as §1"}, "Zosuquidar": {"compound": "O[C@@H](COc1cccc2ncccc12)CN1CCN([C@@H]2c3ccccc3[C@@H]3[C@H](c4ccccc42)C3(F)F)CC1 [Zosuquidar]", "procedure,_shortened": "as §1"}, "Zosuquidar + Bortezomib": {"compound": "O[C@@H](COc1cccc2ncccc12)CN1CCN([C@@H]2c3ccccc3[C@@H]3[C@H](c4ccccc42)C3(F)F)CC1 [Zosuquidar] + CC(C)C[C@H](NC(=O)[C@H](Cc1ccccc1)NC(=O)c1cnccn1)B(O)O [Bortezomib] (partner 0.002 µM)", "procedure,_shortened": "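Lung cancer cell lines were pin-tool dosed in 1536-well plates on the day after seeding, with either a lone drug or a fixed anchor-drug dose plus five library-drug doses (not always all listed) in √10 steps. Nuclei were counted on 4× images after 5 days. Relative viability is the ratio of treated-well to vehicle-well nuclei counts, with each value a median of duplicate plates.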"}}, "data": [{"cell line": "UMC-11", "values": [{"measurement": "relative viability", "setting": "Kobe2602; 0.2 µM", "value": 1.05}, {"measurement": "relative viability", "setting": "Kobe2602; 0.6325 µM", "value": 1.01}, {"measurement": "relative viability", "setting": "Kobe2602; 2 µM", "value": 1.06}, {"measurement": "relative viability", "setting": "Kobe2602; 6.325 µM", "value": 0.975}, {"measurement": "relative viability", "setting": "Kobe2602; 20 µM", "value": 1.05}, {"measurement": "relative viability", "setting": "Cabozantinib; 0.02 µM", "value": 0.989}, {"measurement": "relative viability", "setting": "Cabozantinib; 0.06325 µM", "value": 1.11}, {"measurement": "relative viability", "setting": "Cabozantinib; 0.2 µM", "value": 0.963}, {"measurement": "relative viability", "setting": "Cabozantinib; 0.6325 µM", "value": 1.04}, {"measurement": "relative viability", "setting": "Cabozantinib; 2 µM", "value": 1}, {"measurement": "relative viability", "setting": "Zosuquidar; 0.01 µM", "value": 0.957}, {"measurement": "relative viability", "setting": "Zosuquidar; 0.03162 µM", "value": 1.04}, {"measurement": "relative viability", "setting": "Zosuquidar; 0.1 µM", "value": 0.908}, {"measurement": "relative viability", "setting": "Zosuquidar; 0.3162 µM", "value": 1.11}, {"measurement": "relative viability", "setting": "Zosuquidar; 1 µM", "value": 0.96}, {"measurement": "relative viability", "setting": "Zosuquidar + Bortezomib; first compound 0.01 µM", "value": 0.654}, {"measurement": "relative viability", "setting": "Zosuquidar + Bortezomib; first compound 0.03162 µM", "value": 0.715}, {"measurement": "relative viability", "setting": "Zosuquidar + Bortezomib; first compound 0.1 µM", "value": 0.676}, {"measurement": "relative viability", "setting": "Zosuquidar + Bortezomib; first compound 0.3162 µM", "value": 1.06}, {"measurement": "relative viability", "setting": "Zosuquidar + Bortezomib; first compound 1 µM", "value": 0.625}]}]}
